Source: PMC2248166, “Quantitative peptide binding motifs for 19 human and mouse MHC class I molecules derived using positional scanning combinatorial peptide libraries” (Immunome Research, 2008)
pIC50: −log10 of the molar value. Where a SMILES comes first, the peptide text is derived from it.

Each molecule was assayed against HLA B*1503 (Homo sapiens, UniProt P01889, A329T/A93T/A95T/C349S/D201E/D98Y/E187L/E204Q/K202T/N87E/Q94N/R155S/R180L/S121R/S35A/V306I/V36M/Y140S/Y91S) (assay: biochemical).
Assay type: binding
`CC[C@H](C)[C@H](N)C(=O)N[C@@H](CO)C(=O)N[C@H](C(=O)N[C@@H](Cc1ccc(O)cc1)C(=O)N1CCC[C@H]1C(=O)NCC(=O)N[C@@H](CC(N)=O)C(=O)N[C@H](C(=O)N[C@@H](Cc1ccccc1)C(=O)O)[C@@H](C)O)[C@@H](C)O` [3102.1229] (H-ISTYPGNTF-OH) showed a pIC50 of 9.32.
`CC(C)C[C@H](NC(=O)[C@H](CO)NC(=O)[C@H](CC(C)C)NC(=O)CNC(=O)[C@H](CS)NC(=O)[C@H](CO)NC(=O)[C@H](Cc1ccccc1)NC(=O)[C@H](CCCCN)NC(=O)[C@@H](N)Cc1ccc(O)cc1)C(=O)O` [3102.1230] (H-YKFSCGLSL-OH) gave a pIC50 of 9.89.
Work on `CC(C)C[C@H](NC(=O)[C@H](Cc1ccc(O)cc1)NC(=O)[C@H](CCC(N)=O)NC(=O)[C@H](Cc1ccccc1)NC(=O)[C@H](CCC(N)=O)NC(=O)[C@@H]1CCCN1C(=O)[C@H](CCC(N)=O)NC(=O)[C@H](CCC(N)=O)NC(=O)[C@@H](N)Cc1ccccc1)C(=O)O` [3102.1233] (H-FQQPQFQYL-OH) yielded a pIC50 of 7.64.
`CC[C@H](C)[C@H](NC(=O)[C@@H](NC(=O)[C@H](CC(C)C)NC(=O)[C@H](CCSC)NC(=O)[C@H](CCCCN)NC(=O)[C@@H](N)CC(N)=O)[C@@H](C)O)C(=O)N[C@H](C(=O)N[C@@H](CO)C(=O)N[C@@H](Cc1ccccc1)C(=O)O)[C@@H](C)O` [3102.1234] (H-NKMLTITSF-OH) gave a pIC50 of 8.85.
`C[C@H](NC(=O)[C@@H](N)CCCNC(=N)N)C(=O)N[C@@H](CO)C(=O)N[C@@H](CO)C(=O)NCC(=O)N[C@@H](CC(=O)O)C(=O)N[C@@H](CO)C(=O)N[C@@H](CO)C(=O)N[C@@H](Cc1ccccc1)C(=O)O` [3102.1236] (H-RASSGDSSF-OH) was tested, and the pIC50 was 7.68.
Molecule `CC(C)C[C@H](NC(=O)[C@@H](NC(=O)[C@H](CCCNC(=N)N)NC(=O)[C@H](CC(N)=O)NC(=O)[C@H](CC(N)=O)NC(=O)[C@H](CCCCN)NC(=O)[C@@H](N)CCCCN)C(C)C)C(=O)N[C@@H](CS)C(=O)N[C@@H](Cc1ccccc1)C(=O)O` [3102.1237] (H-KKNNRVLCF-OH) has a pIC50 of 8.80.
With `CC[C@H](C)[C@H](N)C(=O)N[C@@H](CCCCN)C(=O)N[C@@H](CCCNC(=N)N)C(=O)N[C@H](C(=O)N[C@@H](CO)C(=O)N[C@@H](CO)C(=O)N[C@@H](CO)C(=O)N[C@@H](CC(=O)O)C(=O)N[C@@H](Cc1ccccc1)C(=O)O)C(C)C` [3102.1239] (H-IKRVSSSDF-OH) the pIC50 was 8.74.
For `CC(C)C[C@H](NC(=O)[C@H](CC(C)C)NC(=O)[C@H](CCCNC(=N)N)NC(=O)[C@H](CCCNC(=N)N)NC(=O)[C@@H](NC(=O)[C@H](Cc1c[nH]cn1)NC(=O)[C@@H](N)Cc1ccccc1)C(C)C)C(=O)N[C@@H](CCCCN)C(=O)N[C@@H](Cc1ccccc1)C(=O)O` [3102.1241] (H-FHVRRLLKF-OH), the pIC50 was 7.68.
In the case of `CC[C@H](C)[C@H](NC(=O)[C@H](CS)NC(=O)[C@@H](NC(=O)[C@H](CC(N)=O)NC(=O)[C@@H]1CCCN1C(=O)[C@H](Cc1ccc(O)cc1)NC(=O)[C@H](CC(C)C)NC(=O)[C@@H](N)CO)C(C)C)C(=O)N[C@@H](Cc1ccccc1)C(=O)O` [3102.1246] (H-SLYPNVCIF-OH), the pIC50 was 8.31.
With `CSCC[C@H](NC(=O)[C@@H](N)CCCNC(=N)N)C(=O)N[C@@H](Cc1ccccc1)C(=O)NCC(=O)N[C@@H](CO)C(=O)N[C@@H](CCCCN)C(=O)N1CCC[C@H]1C(=O)N[C@H](C(=O)N[C@@H](Cc1ccccc1)C(=O)O)[C@@H](C)O` [3102.1247] (H-RMFGSKPTF-OH) the pIC50 was 9.68.
For `CSCC[C@H](NC(=O)[C@H](CCCCN)NC(=O)[C@H](CCC(N)=O)NC(=O)[C@@H](N)CCCCN)C(=O)N[C@@H](Cc1ccccc1)C(=O)N[C@@H](CO)C(=O)N[C@@H](CC(N)=O)C(=O)N[C@@H](CC(N)=O)C(=O)N[C@H](C(=O)O)C(C)C` [3102.1248] (H-KQKMFSNNV-OH), the pIC50 was 7.72.
`CSCC[C@H](NC(=O)[C@@H](N)CC(C)C)C(=O)N[C@H](C(=O)N[C@@H](CO)C(=O)NCC(=O)N1CCC[C@H]1C(=O)N[C@@H](CC(N)=O)C(=O)N[C@H](C(=O)N[C@H](C(=O)O)C(C)C)C(C)C)C(C)C` [3102.1249] (H-LMVSGPNVV-OH) was tested, and the pIC50 was 8.42.
`CC[C@H](C)[C@H](N)C(=O)N[C@@H](CCCCN)C(=O)N[C@H](C(=O)N[C@H](C(=O)N[C@@H](C)C(=O)N[C@@H](C)C(=O)N[C@@H](CO)C(=O)N1CCC[C@H]1C(=O)N[C@@H](CCSC)C(=O)O)[C@@H](C)O)C(C)C` [3102.1251] (H-IKVTAASPM-OH) showed a pIC50 of 8.55.
In the case of `CSCC[C@H](NC(=O)[C@@H](N)CCCCN)C(=O)N[C@@H](C)C(=O)N[C@@H](C)C(=O)N[C@@H](CC(=O)O)C(=O)N[C@@H](CCCNC(=N)N)C(=O)NCC(=O)N[C@@H](C)C(=O)N[C@@H](Cc1ccccc1)C(=O)O` [3102.1255] (H-KMAADRGAF-OH), the pIC50 was 8.60.
Work on `CC(C)[C@H](NC(=O)[C@H](CCCCN)NC(=O)[C@@H](N)CCCCN)C(=O)N[C@@H](Cc1ccc(O)cc1)C(=O)N[C@H](C(=O)N[C@@H](Cc1ccccc1)C(=O)N[C@@H](Cc1ccccc1)C(=O)N[C@@H](CCCCN)C(=O)N[C@@H](Cc1ccccc1)C(=O)O)[C@@H](C)O` [3102.1257] (H-KKVYTFFKF-OH) yielded a pIC50 of 8.44.
`CC[C@H](C)[C@H](NC(=O)[C@H](Cc1ccc(O)cc1)NC(=O)[C@H](CCC(N)=O)NC(=O)[C@@H](N)Cc1ccc(O)cc1)C(=O)N[C@@H](Cc1ccccc1)C(=O)N[C@@H](CC(C)C)C(=O)N[C@@H](CO)C(=O)N[C@@H](Cc1ccccc1)C(=O)N[C@@H](Cc1ccccc1)C(=O)O` [3102.1259] was tested, and the pIC50 was 9.03.
`CC[C@H](C)[C@H](N)C(=O)N[C@@H](CC(C)C)C(=O)N[C@@H](Cc1c[nH]cn1)C(=O)N[C@H](C(=O)N[C@@H](CC(=O)O)C(=O)N[C@H](C(=O)N[C@@H](CC(C)C)C(=O)N[C@@H](CO)C(=O)N[C@@H](Cc1ccccc1)C(=O)O)[C@@H](C)CC)C(C)C` [3102.1261] (H-ILHVDILSF-OH) was tested, and the pIC50 was 7.62.
`CC(C)C[C@H](NC(=O)[C@H](CCC(=O)O)NC(=O)[C@@H](NC(=O)[C@H](CO)NC(=O)[C@H](CO)NC(=O)[C@@H](NC(=O)[C@H](CCC(N)=O)NC(=O)[C@@H](N)CO)C(C)C)[C@@H](C)O)C(=O)N[C@@H](Cc1ccccc1)C(=O)O` [3102.1264] (H-SQVSSTELF-OH) was tested, and the pIC50 was 8.74.
For `CC(C)C[C@H](N)C(=O)N[C@@H](CCCCN)C(=O)N[C@@H](Cc1ccc(O)cc1)C(=O)N[C@@H](Cc1ccc(O)cc1)C(=O)N[C@@H](Cc1ccc(O)cc1)C(=O)N[C@@H](CO)C(=O)N[C@@H](CC(N)=O)C(=O)N[C@@H](CO)C(=O)N[C@@H](Cc1ccc(O)cc1)C(=O)O` [3102.1265] (H-LKYYYSNSY-OH), the pIC50 was 9.62.
`CC(C)C[C@H](NC(=O)[C@H](CC(N)=O)NC(=O)[C@H](C)NC(=O)[C@H](CO)NC(=O)[C@H](CC(C)C)NC(=O)[C@H](CCCNC(=N)N)NC(=O)[C@H](CC(C)C)NC(=O)[C@@H](N)Cc1ccccc1)C(=O)N[C@@H](Cc1ccccc1)C(=O)O` [3102.1266] (H-FLRLSANLF-OH) gave a pIC50 of 9.92.
`CC(C)[C@H](NC(=O)[C@H](Cc1ccc(O)cc1)NC(=O)[C@H](CCCNC(=N)N)NC(=O)[C@@H](NC(=O)[C@H](CC(N)=O)NC(=O)[C@H](Cc1ccc(O)cc1)NC(=O)[C@H](CCCCN)NC(=O)[C@@H](N)CCCCN)C(C)C)C(=O)N[C@@H](Cc1ccccc1)C(=O)O` [3102.1267] (H-KKYNVRYVF-OH) showed a pIC50 of 9.00.
In the case of `CSCC[C@H](NC(=O)[C@H](C)N)C(=O)N[C@@H](CCCCN)C(=O)N[C@H](C(=O)N[C@@H](CC(=O)O)C(=O)N[C@@H](C)C(=O)N[C@@H](CC(N)=O)C(=O)N[C@@H](Cc1ccc(O)cc1)C(=O)N[C@@H](Cc1ccccc1)C(=O)O)C(C)C` [3102.1268] (H-AMKVDANYF-OH), the pIC50 was 9.82.
